We go through eight sequences from patent US20060079453A1, “Hla binding peptides and their uses” (priority 2002, published 2006).

Like-named read-outs stand apart in the source and are kept apart here. No end group written: not given here. Some results are limits rather than exact numbers.

Targets include HLA-DR DRB1*0405 (DR4) (Homo sapiens, UniProt P01903+P01911, A100R/A169T/D86S/F76Y/I96L/K127E/L162R/M171V/N62H/P40V/Q125Y/R42H/S133A/S149N/S66Y/V115G/V209L/W38E); HLA-DR DRB4*0101 (DR53) (Homo sapiens, UniProt P01903+P13762, G164S); HLA-DR DRB1*0401 (DR4) (Homo sapiens, UniProt P01903+P01911, A100K/A169T/F76Y/I96L/K127E/L162R/M171V/N62H/P40V/Q125Y/R42H/S133A/S149N/S66Y/V115G/V209L/W38E); HLA-DR DRB1*0101 (DR1) (Homo sapiens, UniProt P01903+P01911, A100R/D57E/F55L/F60I/F76Y/I96L/L162R/M171V/P40L/Q125E/R42F/V115G/Y59C); HLA-DR DRB3*0101 (DR52) (Homo sapiens, UniProt P01903+P79483); HLA-DR DRB1*1302 (DR13) (Homo sapiens, UniProt P01903+P01911, A100E/A169T/K41T/L162R/M171V/P40S/Q125H/Q178H/Q39Y/Q99D/R42S/S66N/T262R/V115G/W38E/Y61H); HLA-DR DRB1*0701 (DR7) (Homo sapiens, UniProt P01903+P01911, A100R/A102G/A103Q/D57E/D86V/E43K/F76Y/K127E/L162R/M171V/P40G/Q125H/Q99D/R33Q/R42Y/R54Q/S133A/S66F/T210M/V115G/Y107V/Y59L/Y89S); HLA-DR DRB1*0301 (DR3) (Homo sapiens, UniProt P01903+P01911, A100K/A102G/A103R/A169T/F55Y/I96L/K41T/L162R/M171V/P40S/Q125H/Q178H/Q39Y/R42S/S66N/T106N/T262R/W38E/Y61H); HLA-DR DRB1*1101 (DR11) (Homo sapiens, UniProt P01903+P01911, A100R/A169T/A87E/I96F/K41T/L162R/M171V/P40S/Q125H/Q178H/Q39Y/Q99D/R42S/S66Y/T262R/V115G/W38E); HLA-DR DRB5*0101 (DR51) (Homo sapiens, UniProt P01903+Q30154); HLA-DR DRB1*1501 (DR15) (Homo sapiens, UniProt P01903+P01911); HLA-DR DRB1*0802 (DR8) (Homo sapiens, UniProt P01903+P01911, A100R/A103L/A169T/F76Y/H45Y/I96F/K41T/L162R/M171V/P40S/Q125H/Q178H/Q39Y/Q99D/R218S/R42G/S66Y/V115G/W38E).

Holding throughout (experiment): biochemical
Holding throughout (assay type): binding

The target in a further experiment is HLA-DR DRB1*0901 (DR9) (Homo sapiens, UniProt P01903+P01911, A100R/A103E/D57H/D86V/F55Y/F60I/F76Y/I96F/K127E/L162R/M171V/P40D/Q125H/Q99R/R33Q/R42F/S133A/S66N/T210M/V115G/W38K/Y107V/Y59G/Y89S). As to conditions: DRB1 *0901.

Sequence of HLA-DR DRB1*1101 (DR11) (P01903 26-254 limits assumed, other chains not shown): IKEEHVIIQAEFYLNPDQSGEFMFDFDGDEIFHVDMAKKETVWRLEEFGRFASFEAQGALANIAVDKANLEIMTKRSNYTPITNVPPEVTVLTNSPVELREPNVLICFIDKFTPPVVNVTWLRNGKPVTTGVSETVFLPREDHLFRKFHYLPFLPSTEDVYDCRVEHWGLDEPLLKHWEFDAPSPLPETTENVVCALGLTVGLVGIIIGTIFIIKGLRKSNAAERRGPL
Sequence of HLA-DR DRB1*1302 (DR13) (P01903 26-254 limits assumed, other chains not shown): as above
Sequence of HLA-DR DRB1*0301 (DR3) (P01903 26-254 limits assumed, other chains not shown): as above

Regarding APPRLITDSRVLERY, the IC50 (as a rule, the concentration needed to halve the response being measured) against HLA-DR DRB1*0405 (DR4) (DRB1 *0405) came to 7.77 µM; against HLA-DR DRB4*0101 (DR53) (DRB4 *0101) it was 2.26 µM; against HLA-DR DRB1*0401 (DR4) (DRB1 *0401) it was 6.68 µM; against HLA-DR DRB1*0101 (DR1) (DRB1 *0101), 10.1 µM; at HLA-DR DRB3*0101 (DR52), 0.71 µM; at HLA-DR DRB1*1302 (DR13) (DRBI *1302), 0.092 µM. Besides, the IC50 at HLA-DR DRB1*0901 (DR9) was 8.39 µM; on HLA-DR DRB1*0701 (DR7) (DRB1 *0701) it was 0.629 µM; against HLA-DR DRB1*0301 (DR3), 0.015 µM; on HLA-DR DRB1*1101 (DR11) (DRB1 *1101), 2.75 µM; at HLA-DR DRB5*0101 (DR51) (DRB5 *0101) it was 0.698 µM.

Take GAPLGGAARALAAGV: the IC50 against HLA-DR DRB1*0405 (DR4) was greater than 3.37 µM; against HLA-DR DRB4*0101 (DR53) it was 3.87 µM; on HLA-DR DRB1*0401 (DR4), 11.3 µM; against HLA-DR DRB3*0101 (DR52), greater than 51.1 µM; against HLA-DR DRB1*1501 (DR15), 5.71 µM; against HLA-DR DRB1*1302 (DR13), 23.2 µM. Also, the IC50 at HLA-DR DRB1*0701 (DR7) amounted to 7.42 µM; against HLA-DR DRB1*0301 (DR3), 23.3 µM; against HLA-DR DRB1*1101 (DR11), 0.045 µM; against HLA-DR DRB5*0101 (DR51), 8.35 µM.

Take ELVSEFSRMARDPQ: the IC50 came to 15.1 µM at HLA-DR DRB1*0405 (DR4) (DRB1 *0405); 0.97 µM at HLA-DR DRB4*0101 (DR53) (DRB4 *0101); 0.12 µM at HLA-DR DRB1*0401 (DR4) (DRB1 *0401); 0.201 µM against HLA-DR DRB1*0101 (DR1) (DRB1 *0101); 15.8 µM on HLA-DR DRB3*0101 (DR52); 7.89 µM at HLA-DR DRB1*1501 (DR15) (DRBI *1501). The IC50 is greater than 71.4 µM against HLA-DR DRB1*1302 (DR13) (DRBI *1302), 91.6 µM at HLA-DR DRB1*0901 (DR9), 21.3 µM against HLA-DR DRB1*0701 (DR7) (DRB1 *0701) and 4.57 µM on HLA-DR DRB1*1101 (DR11) (DRB1 *1101).

For the sequence GAPLGGAARLLAHGV, the IC50 is greater than 3.37 µM on HLA-DR DRB1*0405 (DR4); 2.55 µM at HLA-DR DRB4*0101 (DR53); 15 µM against HLA-DR DRB1*0401 (DR4); 0.398 µM on HLA-DR DRB1*0101 (DR1); greater than 51.1 µM against HLA-DR DRB3*0101 (DR52); 0.631 µM at HLA-DR DRB1*1501 (DR15). Further, the IC50 on HLA-DR DRB1*1302 (DR13) was 29.4 µM; against HLA-DR DRB1*0701 (DR7) it was 57.5 µM; against HLA-DR DRB1*0301 (DR3) it was 23 µM; against HLA-DR DRB1*1101 (DR11), 0.08 µM.

Regarding GAPLGGAAAALAHGV, the IC50 against HLA-DR DRB1*0405 (DR4) is greater than 3.37 µM; against HLA-DR DRB4*0101 (DR53), 0.031 µM; against HLA-DR DRB1*0401 (DR4), 5.47 µM; on HLA-DR DRB3*0101 (DR52), greater than 51.1 µM; at HLA-DR DRB1*1501 (DR15), 7.68 µM; against HLA-DR DRB1*1302 (DR13), 23.8 µM. The IC50 against HLA-DR DRB1*0701 (DR7) came to 31.9 µM; on HLA-DR DRB1*0301 (DR3), 82.1 µM; against HLA-DR DRB1*1101 (DR11), 43.8 µM; on HLA-DR DRB5*0101 (DR51), 12.9 µM.

In the case of HYLKAKEDSHTAWTI, the IC50 was determined as 15.1 µM on HLA-DR DRB1*0405 (DR4) (DRB1 *0405); 11.8 µM against HLA-DR DRB4*0101 (DR53) (DRB4 *0101); 0.553 µM against HLA-DR DRB1*0401 (DR4) (DRB1 *0401); 0.232 µM against HLA-DR DRB1*0101 (DR1) (DRB1 *0101); 35.8 µM against HLA-DR DRB3*0101 (DR52); 0.529 µM on HLA-DR DRB1*1501 (DR15) (DRBI *1501). Also, the IC50 at HLA-DR DRB1*1302 (DR13) (DRBI *1302) was 2.26 µM; on HLA-DR DRB1*0901 (DR9) it was 10.1 µM; on HLA-DR DRB1*0701 (DR7) (DRB1 *0701) it was 0.801 µM; against HLA-DR DRB1*0301 (DR3), 70.2 µM; against HLA-DR DRB1*1101 (DR11) (DRB1 *1101) it was greater than 60.6 µM; on HLA-DR DRB5*0101 (DR51) (DRB5 *0101), 19.6 µM.

Take RTITADTFRKLFRVY: the IC50 was determined as 1.96 µM on HLA-DR DRB1*0405 (DR4) (DRB1 *0405); 1.56 µM on HLA-DR DRB4*0101 (DR53) (DRB4 *0101); 1.04 µM against HLA-DR DRB1*0401 (DR4) (DRB1 *0401); 0.792 µM at HLA-DR DRB1*0802 (DR8); 0.148 µM against HLA-DR DRB1*0101 (DR1) (DRB1 *0101); 0.672 µM against HLA-DR DRB3*0101 (DR52). The IC50 against HLA-DR DRB1*1501 (DR15) (DRBI *1501) was 0.035 µM; against HLA-DR DRB1*1302 (DR13) (DRBI *1302) it was 0.095 µM; against HLA-DR DRB5*0101 (DR51) (DRB5 *0101), 0.093 µM.

On to YGAVVNLRKTVVNFP, for which the IC50 against HLA-DR DRB1*0405 (DR4) (DRB1 *0405) was greater than 95 µM; on HLA-DR DRB4*0101 (DR53) (DRB4 *0101), 0.302 µM; against HLA-DR DRB1*0401 (DR4) (DRB1 *0401), 4.19 µM; at HLA-DR DRB1*0101 (DR1) (DRB1 *0101) it was 13.5 µM; at HLA-DR DRB3*0101 (DR52), 51.5 µM; against HLA-DR DRB1*1501 (DR15) (DRBI *1501), 0.47 µM. Besides, the IC50 at HLA-DR DRB1*1302 (DR13) (DRBI *1302) is 11.2 µM; on HLA-DR DRB1*0701 (DR7) (DRB1 *0701), 8.27 µM; at HLA-DR DRB1*0301 (DR3), 150 µM; against HLA-DR DRB1*1101 (DR11) (DRB1 *1101), 0.089 µM; against HLA-DR DRB5*0101 (DR51) (DRB5 *0101) it was 0.036 µM.
